For test [1], the system named is sub-genomic replicon, genotype 1b (Con1b). In words: Sub-genomic replicon assay (luciferase). Format: cell-based, hepatitis C virus. Conditions: FIG. 8. The procedure:
This assay uses a sub-genomic replicon analogous to that described by Lohmann (Lohmann et al., 1999). As above, we co-transfect an RNA encoding renilla […] luciferase to allow normalization of transfection levels. In these assays we usually transfect the sub-genomic replicon (and renilla) RNA 24 hours before addition of the oligonucleotides.
In this assay we investigated inhibition of luciferase gene activity encoding by the sub-genomic replicon and the influence of prior transfection of oligonucleotides directed against SL9266 or SL9571. The sub-genomic replicon is a genotype 1b sequences (Con1b) and directly complementary oligonucleotides directed against SL9266 (labelled anti SL9266_C) inhibit replication by ˜70% (see FIG. 8).
Background: In antiviral work, replicon cells carry a viral genome segment that copies itself.

Test [2] has as its system translation of hepatitis C virus. The test can be described thus: Translation assay with bicistronic luciferase reporter, co-transfected with oligonucleotides. The format is cell-based. As to conditions: Huh-7.5 cells, added at 1600 nM, normalized to untreated samples. The text has this: The translation assay uses the bicistronic reporter gene system described in Example 1. In brief, a firefly luciferase reporter gene is under the translational control of the HCV internal ribosome entry site (IRES) as part of the complete 5′ untranslated region of HCV. The luciferase gene is followed by an IRES from an unrelated virus (encephalomyocarditis virus; EMCV) which drives expression of the RNA dependent RNA polymerase (RdRp) of HCV (the NS5B protein) which, in turn, is followed by the HCV 3′ untranslated region (3′ UTR).
All experiments are routinely conducted in human hepatoma cells—Huh-7.5. This is the cell line in which HCV replicates. However, we have also investigated the bicistronic reporter system in HepG2, HeLa and murine cell lines, as well as in cell free translation systems supplemented with Huh-7.5 cell extracts.
The readout of the translation assay is luciferase activity. To control for differences in transfection we co-transfected a separate plasmid encoding renilla luciferase and normalize all firefly results to this.
The translation inhibition assay is typically conducted by co-transfecting RNA generated in vitro from the bicistronic reporter plasmid with oligonucleotides to be tested. Assays for luciferase are routinely conducted four hours post transfection.

In test [3] the test system is genotype 2a JFH-1 hepatitis C virus. The test can be described thus: Virus production / virus replication assay (HCVcc, NS5A immunofocal staining). The format is cell-based. Conditions: JFH-1 in Huh-7.5 cells, compared to untreated cells, FIG. 9. The procedure: This assay uses the HCVcc system that measures the production of infectious genotype 2a JFH-1 hepatitis C virus as described previously (Wakita et al., 2005). In this assay oligonucleotides directed against RNA sequences or structures are transfected into Huh-7.5 cells and a known amount of virus added 4 hours later. After 24 hours incubation the cell sheet is fixed and virus replication quantified by immunofocal staining for virus antigen (in this instance the NS5A protein). Infected cells are counted using a fluorescence microscope.

As for “5′-GGGCACGAGACAGGCTGTGAT-3′ [Con1b anti-SL9266 LNA oligonucleotide]”, the “inhibition of replication (replicon luciferase activity)” value in test [1] is recorded as about 70%.
Consider “5′-ACGCTGTGAAAAATGTC-3′ [JFH-1 anti-SL9266 LNA oligonucleotide]”, for which the “inhibition of replication (replicon luciferase activity), in words” value in test [1] is listed as “only partially inhibitory”.
Turning to “5′-GCACAGCGCAAGTATGTTA-3′ [Randomised LNA oligonucleotide]”, in test [2], the “inhibition of translation (maximum)” value is on record as about 20%. In test [3], the “influence on virus replication, in words” value was “little or no influence”.

(Values after patent US20140221460A1, “METHOD FOR IDENTIFYING MODULATORS OF HCV TRANSLATION OR REPLICATION INVOLVING THE NS5B POLYPEPTIDE AND A PSEUDOKNOT” (priority 2011, published 2014).)
